Biological target: T1, CFTR channel in human colonic T84 cells (Homo sapiens, UniProt P13569)
T1 construct: host or cells: T84 human colonic cells
Assay: T84 assay (FLIPR membrane potential dye, forskolin/IBMX-stimulated)
Assay type: cell-based
Details: average of at least 2 runs unless marked n = 1
Description: For example, Human colonic T84 cells can be acquired from the European Collection of Cell Cultures (ECACC) and grown in standard culture conditions as described by the supplier. On the day before assay 25,000 T84 cells per well are plated into standard black walled, clear bottom 384-well assay plates in standard growth medium consisting of DMEM:F12 with 10% FBS and incubated overnight. […] T84 cells are incubated with the FLIPR Red membrane potential dye for 45 minutes in the presence and absence of test compound before being transferred to a commercially available fluorescence imaging plate reader (FLIPR384, Molecular Devices Corporation). Fluorescence levels are monitored continuously every second for 150 seconds; after an initial 10 second baseline, CFTR channel activity is stimulated through the addition of 10 μM forskolin in the presence of 100 μM of the phosphodiesterase inhibitor iso-butyl-methylxanthine (IBMX). […] CFTR channel opening causes chloride ion efflux and subsequent depolarization of the cells, which is measured by an increase in fluorescence. CFTR inhibitor compounds prevent cell depolarization and the associated increase in fluorescence. […]

T1 sequence (P13569 whole entry): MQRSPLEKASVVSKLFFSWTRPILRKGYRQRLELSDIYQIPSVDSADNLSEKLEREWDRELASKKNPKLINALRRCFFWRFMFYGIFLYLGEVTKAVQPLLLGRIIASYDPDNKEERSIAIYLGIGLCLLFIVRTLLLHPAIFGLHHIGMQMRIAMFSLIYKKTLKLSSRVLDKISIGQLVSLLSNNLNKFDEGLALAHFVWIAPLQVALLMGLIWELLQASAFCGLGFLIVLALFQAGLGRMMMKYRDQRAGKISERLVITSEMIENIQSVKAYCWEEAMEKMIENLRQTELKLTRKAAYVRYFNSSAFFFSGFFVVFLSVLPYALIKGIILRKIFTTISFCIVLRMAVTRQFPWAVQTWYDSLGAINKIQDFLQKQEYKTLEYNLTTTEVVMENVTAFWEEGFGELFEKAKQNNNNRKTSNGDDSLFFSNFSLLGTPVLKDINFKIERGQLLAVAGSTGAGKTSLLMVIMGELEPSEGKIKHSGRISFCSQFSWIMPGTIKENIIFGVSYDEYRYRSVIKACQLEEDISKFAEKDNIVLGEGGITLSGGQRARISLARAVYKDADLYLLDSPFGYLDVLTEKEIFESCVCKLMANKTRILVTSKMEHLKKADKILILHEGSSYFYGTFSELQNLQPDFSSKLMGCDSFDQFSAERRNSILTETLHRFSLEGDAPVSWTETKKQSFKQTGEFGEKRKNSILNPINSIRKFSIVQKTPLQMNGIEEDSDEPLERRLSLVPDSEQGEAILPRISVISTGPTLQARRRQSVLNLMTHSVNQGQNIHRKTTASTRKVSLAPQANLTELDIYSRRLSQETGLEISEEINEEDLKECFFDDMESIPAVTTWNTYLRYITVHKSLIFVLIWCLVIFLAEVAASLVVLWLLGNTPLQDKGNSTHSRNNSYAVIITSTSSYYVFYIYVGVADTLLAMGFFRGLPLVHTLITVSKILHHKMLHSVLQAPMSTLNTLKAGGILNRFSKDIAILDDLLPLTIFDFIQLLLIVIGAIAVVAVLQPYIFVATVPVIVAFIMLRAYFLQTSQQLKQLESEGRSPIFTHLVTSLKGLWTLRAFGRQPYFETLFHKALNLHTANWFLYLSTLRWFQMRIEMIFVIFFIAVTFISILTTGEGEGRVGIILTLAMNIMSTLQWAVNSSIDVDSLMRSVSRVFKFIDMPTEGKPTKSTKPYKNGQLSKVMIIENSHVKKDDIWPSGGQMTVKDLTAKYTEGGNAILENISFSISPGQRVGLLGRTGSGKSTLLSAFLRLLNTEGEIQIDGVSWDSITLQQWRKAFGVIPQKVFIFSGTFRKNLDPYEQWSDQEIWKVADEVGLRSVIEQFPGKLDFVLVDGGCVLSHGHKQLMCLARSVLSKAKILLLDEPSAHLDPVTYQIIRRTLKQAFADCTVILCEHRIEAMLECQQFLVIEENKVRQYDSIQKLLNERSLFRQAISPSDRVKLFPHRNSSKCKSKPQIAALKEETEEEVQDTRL

Q: `O=C(NCc1ccc(Oc2cc(C(F)(F)F)cc(C(F)(F)F)c2)cc1)c1ncn(-c2cc(Cl)c(O)c(Cl)c2)n1` [Compound 62, N-(4-(3,5-bis(trifluoromethyl)phenoxy)benzyl)-1-(3,5-dichloro-4-hydroxyphenyl)-1H-1,2,4-triazole-3-carboxamide] was tested. Which IC50 did it give?
A: The IC50 was ≥ 50 µM.
